Like-named read-outs stand apart in the source and are kept apart here.
How the values were obtained:
B-Raf [1] = target: T1, B-Raf (Homo sapiens, UniProt P15056, V600E); assay: cell-based; type: cell-based; conditions: for EC50: B-Raf ITDRFCETSA pEC50, 2 h incubation with live A375 cells, mean ± standard deviation of ⩾3 technical repeats
B-Raf [2] = target: T1, B-Raf; assay: B-Raf CETSA HT single-concentration screen of kinase inhibitor library; type: cell-based; conditions: 30 µM, 2 h incubation with live A375 cells, 49 °C heatshock, two technical repeats
purified B-Raf protein = purified B-Raf protein (Homo sapiens, UniProt P15056); assay: Differential scanning fluorimetry with purified B-Raf protein; type: binding; conditions: same concentration (30 µM); data not shown
Chain of purified B-Raf protein (P15056 whole entry): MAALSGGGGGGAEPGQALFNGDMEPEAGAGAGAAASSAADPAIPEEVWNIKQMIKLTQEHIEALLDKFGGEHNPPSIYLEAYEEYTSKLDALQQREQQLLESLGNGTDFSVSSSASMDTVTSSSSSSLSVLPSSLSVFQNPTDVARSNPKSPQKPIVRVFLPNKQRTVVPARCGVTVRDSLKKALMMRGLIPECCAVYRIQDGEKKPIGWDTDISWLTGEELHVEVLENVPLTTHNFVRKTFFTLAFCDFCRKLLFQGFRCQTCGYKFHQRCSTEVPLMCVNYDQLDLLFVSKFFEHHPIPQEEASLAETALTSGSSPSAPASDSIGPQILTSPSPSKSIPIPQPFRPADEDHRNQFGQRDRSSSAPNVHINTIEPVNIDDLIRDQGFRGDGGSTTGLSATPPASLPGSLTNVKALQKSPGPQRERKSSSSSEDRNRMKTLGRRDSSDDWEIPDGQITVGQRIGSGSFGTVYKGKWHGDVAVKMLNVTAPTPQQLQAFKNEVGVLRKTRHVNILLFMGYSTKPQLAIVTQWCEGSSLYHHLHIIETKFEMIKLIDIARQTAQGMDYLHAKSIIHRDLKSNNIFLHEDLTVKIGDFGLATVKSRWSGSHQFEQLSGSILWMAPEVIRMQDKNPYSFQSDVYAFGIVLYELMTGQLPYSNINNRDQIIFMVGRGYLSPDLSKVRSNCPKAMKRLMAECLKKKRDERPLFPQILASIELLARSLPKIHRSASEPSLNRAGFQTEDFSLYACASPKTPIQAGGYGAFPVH

[3] = A375 cells, at least three technical repeats

T1 sequence (P15056 whole entry V600E): as the sequence (P15056 whole entry) above, with V600E counted along it

| Compound | B-Raf ITDRFCETSA activity (in words) (B-Raf [1]; [3]) | Thermal stabilization of B-Raf in CETSA HT screen (hit call) (B-Raf [2]) | B-Raf ITDRFCETSA activity (in words) (B-Raf [1]) | other results |
| --- | --- | --- | --- | --- |
| Cc1ccc(NC(=O)c2cccc(C(C)(C)C#N)c2)cc1Nc1ccc2ncn(C)c(=O)c2c1 [AZ628] | clear evidence of target engagement |  |  |  |
| COc1cc2ncnc(Oc3cccc(NC(=O)Nc4cc(C(C)(C)C(F)(F)F)on4)c3)c2cc1OC [CEP-32496] |  | hits |  |  |
| CNS(=O)(=O)Nc1nccc(Cc2c(C)c3ccc(Oc4ncccn4)cc3oc2=O)c1F [CH-5126766] | weak activity |  |  | EC50 (B-Raf [1]): 10 µM |
| C[C@@H](Oc1cc(-c2cnn(C3CCNCC3)c2)cnc1N)c1c(Cl)ccc(F)c1Cl [Crizotinib, crizotinib] | inactive |  |  |  |
| CCn1c(=O)c(-c2cc(NC(=O)Nc3ccccc3)c(F)cc2Br)cc2cnc(NC)cc21 [DCC-2618] |  | Activity was also observed |  | Thermal stabilization of purified B-Raf protein by differential scanning fluorimetry (purified B-Raf protein): showed thermal stabilization |
| CC(C)(C)c1nc(-c2cccc(NS(=O)(=O)c3c(F)cccc3F)c2F)c(-c2ccnc(N)n2)s1 [Dabrafenib, dabrafenib] |  | active | clear evidence of target engagement |  |
| O=C(NOCCO)c1ccc2cncn2c1Nc1ccc(I)cc1F [GDC-0623] | inactive |  |  | EC50 (B-Raf [1]): > 31.6 µM |
| OCCn1cc(-c2ccc3c(c2)CC/C3=N\O)c(-c2ccncc2)n1 [GDC-0879] |  | hits |  |  |
| CNc1ncc2cc(-c3cc(NC(=O)NCCC(C)(C)C)c(F)cc3C)c(C)nc2n1 [LY3009120] |  |  | clear evidence of target engagement |  |
| CCCS(=O)(=O)Nc1ccc(F)c(C(=O)c2c[nH]c3ncc(Cl)cc23)c1F [PLX4720] |  |  | clear evidence of target engagement |  |
| O=C(Nc1ccc2[nH]nc(-c3ccncc3)c2c1)[C@@H]1CCN(CC(=O)N2CCN(c3ccc(-c4ncccn4)cc3)CC2)C1 [SCH772984] | inactive |  |  | EC50 (B-Raf [1]): > 31.6 µM |
| CCCS(=O)(=O)Nc1ccc(F)c(C(=O)c2c[nH]c3ncc(-c4ccc(Cl)cc4)cc23)c1F [Vemurafenib, vemurafenib] |  | active | clear evidence of target engagement |  |
| Cc1ccc(C(=O)Nc2ccc(CN3CCN(C)CC3)c(C(F)(F)F)c2)cc1C#Cc1cnc2cccnn12 [ponatinib] |  | showed activity |  |  |
